Read-outs that look alike come from different tables or passages of the source. Bridge positions count the residues as written; N and C are the ends. Square brackets hold non-standard residues; d marks the D form. Ends that are not written are not given here. Peptide text beside a SMILES is read from it. 1Nal = N[C@@H](Cc1cccc2ccccc12)C(=O)O
Experiments:
[1] = test system: thapsigargin-induced IL-2 production in human whole blood
[2] = test system: thapsigargin-induced IFN-g production in human whole blood; format: cell-based
[3] = read-out: Analogue Activity (IC50) WB/IL-2
[4] = read-out: Analogue Activity (IC50) WB/IFNg

CC[C@H](C)[C@H](NC(=O)[C@H](C)NC(=O)CN)C(=O)N[C@H](C(=O)N[C@@H](CC(N)=O)C(=O)N[C@H](C(=O)N[C@@H](CCCCN)C(=O)N[C@H]1CSSC[C@@H]2NC(=O)[C@H](CCCCN)NC(=O)CNC(=O)[C@H](Cc3ccccc3)NC(=O)[C@H](CCCNC(=N)N)NC(=O)[C@H](CCSC)NC(=O)CNC(=O)[C@H](C)NC(=O)[C@H](CCCCN)NC(=O)[C@H](CCCCN)NC(=O)[C@@H]3CSSC[C@@H](C(=O)N[C@H](C(=O)N4CCC[C@H]4C(=O)N[C@@H](CCCCN)C(=O)O)[C@@H](C)O)NC(=O)[C@H](Cc4c[nH]cn4)NC(=O)[C@H](CSSC[C@H](NC(=O)[C@H](CCC(N)=O)NC(=O)[C@H](CCCNC(=N)N)NC(=O)[C@H](CO)NC(=O)[C@H]([C@@H](C)CC)NC(=O)[C@H](CCCCN)NC1=O)C(=O)N[C@@H](CC(C)C)C(=O)N[C@@H](CCC(=O)O)C(=O)N1CCC[C@H]1C(=O)N3)NC(=O)[C@H](CCCCN)NC(=O)CNC(=O)[C@H](CC(N)=O)NC(=O)[C@H](CCSC)NC2=O)C(C)C)[C@@H](C)CC [V2A] (H-GAIINVKCKISRQCLEPCKKAGMRFGKCMNGKCHCTPK-OH; disulfide 8-28, 14-33, 18-35)
IC50 [1, 3]: 0.0884 nM
IC50 [2, 4]: 0.104 nM

E16K, K20D, T36Y (GVIINVKCKISRQCLKPCKDAGMRFGKCMNGKCHCYPK; Definition of Artificial Sequence: Synthetic peptide)
IC50 ([1]; read-out: WB/IL-2 (IC50)): 0.639 nM
IC50 ([2]; read-out: WB/IFNg (IC50)): 0.923 nM

CC[C@H](C)[C@@H]1NC(=O)[C@H](CCCCN)NC(=O)[C@@H](NC(=O)[C@H](CCCCN)NC(=O)[C@@H](NC(=O)[C@H](CC(N)=O)NC(=O)[C@@H](NC(=O)[C@@H](NC(=O)[C@@H](NC(=O)CN)C(C)C)[C@@H](C)CC)[C@@H](C)CC)C(C)C)CSSC[C@@H]2NC(=O)[C@H](CCCCN)NC(=O)CNC(=O)[C@H](Cc3ccccc3)NC(=O)[C@H](CCCNC(=N)N)NC(=O)[C@H](CCSC)NC(=O)CNC(=O)[C@H](C)NC(=O)[C@H](CCCCN)NC(=O)[C@H](CCCCN)NC(=O)[C@@H]3CSSC[C@@H](C(=O)N[C@H](C(=O)N[C@@H](Cc4cccc5ccccc45)C(=O)N[C@@H](CCCCN)C(=O)O)[C@@H](C)O)NC(=O)[C@H](Cc4c[nH]cn4)NC(=O)[C@H](CSSC[C@H](NC(=O)[C@H](CCC(N)=O)NC(=O)[C@H](CCCNC(=N)N)NC(=O)[C@H](CO)NC1=O)C(=O)N[C@@H](CC(C)C)C(=O)N[C@@H](CCC(=O)O)C(=O)N1CCC[C@H]1C(=O)N3)NC(=O)[C@H](CCCCN)NC(=O)CNC(=O)[C@H](CC(N)=O)NC(=O)[C@H](CCSC)NC2=O [P37Nal] (H-GVIINVKCKISRQCLEPCKKAGMRFGKCMNGKCHCT[1Nal]K-OH; disulfide 8-28, 14-33, 18-35)
IC50 [1, 3]: 1.76 nM
IC50 [2, 4]: 3.04 nM

CC[C@H](C)[C@@H]1NC(=O)[C@H](CCCCN)NC(=O)[C@@H](NC(=O)[C@H](CCCCN)NC(=O)[C@@H](NC(=O)[C@H](CC(N)=O)NC(=O)[C@@H](NC(=O)[C@@H](NC(=O)[C@@H](NC(=O)CN)C(C)C)[C@@H](C)CC)[C@@H](C)CC)C(C)C)CSSC[C@@H]2NC(=O)[C@H](CCCCN)NC(=O)CNC(=O)[C@H](Cc3ccccc3)NC(=O)[C@H](CCCNC(=N)N)NC(=O)[C@H](CCSC)NC(=O)CNC(=O)[C@H](C)NC(=O)[C@H](CCCCN)NC(=O)[C@H](CCCCN)NC(=O)[C@@H]3CSSC[C@@H](C(=O)N[C@H](C(=O)N4CCC[C@H]4C(=O)N[C@@H](CCCCN)C(=O)O)[C@@H](C)O)NC(=O)[C@H](Cc4c[nH]cn4)NC(=O)[C@H](CSSC[C@H](NC(=O)[C@H](CCC(N)=O)NC(=O)[C@H](CCC(=O)O)NC(=O)[C@H](CO)NC1=O)C(=O)N[C@@H](CC(C)C)C(=O)N[C@@H](CCC(=O)O)C(=O)N1CCC[C@H]1C(=O)N3)NC(=O)[C@H](CCCCN)NC(=O)CNC(=O)[C@H](CC(N)=O)NC(=O)[C@H](CCSC)NC2=O [R12E] (H-GVIINVKCKISEQCLEPCKKAGMRFGKCMNGKCHCTPK-OH; disulfide 8-28, 14-33, 18-35)
IC50 [1, 3]: 1.79 nM
IC50 [2, 4]: 2 nM

CC[C@H](C)[C@@H]1NC(=O)[C@H](CCCCN)NC(=O)[C@@H](NC(=O)[C@H](CCCCN)NC(=O)[C@@H](NC(=O)[C@H](CC(N)=O)NC(=O)[C@@H](NC(=O)[C@@H](NC(=O)[C@@H](NC(=O)CN)C(C)C)[C@@H](C)CC)[C@@H](C)CC)C(C)C)CSSC[C@@H]2NC(=O)[C@H](CCCCN)NC(=O)CNC(=O)[C@H](Cc3ccccc3)NC(=O)[C@H](CCCNC(=N)N)NC(=O)[C@H](CCSC)NC(=O)CNC(=O)[C@H](C)NC(=O)[C@H](CCCCN)NC(=O)[C@H](CCCCN)NC(=O)[C@@H]3CSSC[C@@H](C(=O)N[C@H](C(=O)N4CCC[C@H]4C(=O)N[C@@H](CCCCN)C(=O)O)[C@@H](C)O)NC(=O)[C@H](Cc4c[nH]cn4)NC(=O)[C@H](CSSC[C@H](NC(=O)[C@H](Cc4cccc5ccccc45)NC(=O)[C@H](CCCNC(=N)N)NC(=O)[C@H](CO)NC1=O)C(=O)N[C@@H](CC(C)C)C(=O)N[C@@H](CCC(=O)O)C(=O)N1CCC[C@H]1C(=O)N3)NC(=O)[C@H](CCCCN)NC(=O)CNC(=O)[C@H](CC(N)=O)NC(=O)[C@H](CCSC)NC2=O [Q13Nal] (H-GVIINVKCKISR[1Nal]CLEPCKKAGMRFGKCMNGKCHCTPK-OH; disulfide 8-28, 14-33, 18-35)
IC50 [1, 3]: 0.14 nM

SEQ ID No: 4989: OSK1 analog without beta strand 1 (labeled des 1-7), Table 42 (CKISRQCLKPCKDAGMRFGKCMNGKCHC-NH2; ends and bridges not checked)
blockade of the whole blood cytokine response, IL-2 and IFNg [1]: retain activity in blocking inflammation

B1: FcLoop-L2-ShK-L2: ShK inserted into the human IgG1 Fc-loop domain with 2-Gly linkers (protein)
chain: MDKTHTCPPCPAPELLGGPSVFLFPPKPKDTLMISRTPEVTCVVVDVSHEDPEVKFNWYVDGVEVHNAKTKPREEQYNSTYRVVSVLTVLHQDWLNGKEYKCKVSNKALPAPIEKTISKAKGQPREPQVYTLPPSRDELGGRSCIDTIPKSRCTAFQCKHSMKYRLSFCRKTCGTCGGTKNQVSLTCLVKGFYPSDIAVEWESNGQPENNYKTTPPVLDSDGSFFLYSKLTVDKSRWQQGNVFSCSVMHEALHNHYTQKSLSLSPGK
modifications: Definition of Artificial Sequence: Synthetic protein
blockade of the whole blood cytokine response, IL-2 and IFNg [1]: potent blockade

B2: FcLoop-L2-OsK1-L2: OsK1 inserted into the human IgG1 Fc-loop domain with 2-Gly linkers on either side (protein)
chain: MDKTHTCPPCPAPELLGGPSVFLFPPKPKDTLMISRTPEVTCVVVDVSHEDPEVKFNWYVDGVEVHNAKTKPREEQYNSTYRVVSVLTVLHQDWLNGKEYKCKVSNKALPAPIEKTISKAKGQPREPQVYTLPPSRDELGGGVIINVKCKISRQCLEPCKKAGMRFGKCMNGKCHCTPKGGTKNQVSLTCLVKGFYPSDIAVEWESNGQPENNYKTTPPVLDSDGSFFLYSKLTVDKSRWQQGNVFSCSVMHEALHNHYTQKSLSLSPGK
modifications: Definition of Artificial Sequence: Synthetic protein
blockade of the whole blood cytokine response, IL-2 and IFNg [1]: potent blockade
